Experimental data from patent US20230098111A1, “COMPOSITIONS AND METHODS TO TREAT NEUROLOGICAL DISEASES” (University of Southern California, priority 2020, published 2023).
Entries after “also recorded” stand apart in the source; their conditions may differ.

Columns and labels:
TARDBP mice = assay: Motor deficits in TDP-43 (TARDBP) mice; assay type: in vivo
Excerpt: (A) Gait impairment, (B) Kyphosis, and (C) Tremor scoring in wild-type (WT) and TDP-43 homozygous mice treated with a negative control (NC) ASO or Pikfyve ASO at P0. Fore each assay, a score of 0 indicates no phenotype and 4 indicates the most severe phenotype.
To determine if ASO-mediated PIKFYVE suppression can rescue neurodegeneration in mouse models of ALS, two mouse models—a C9ORF72 model based on adeno-associated virus (AAV)-mediated overexpression of poly(GR) and a TDP-43 mouse mode were established. Both models develop neurodegeneration, motor impairment, and paralysis. […]

Pikfyve [1] = assay: Pikfyve qRT-PCR of whole brain after intracerebroventricular ASO; assay type: in vivo, mice; settings: intracerebroventricular ASO injection at P0/P1, brain at P7
Method: (§1) (A) Mass spectrometry analysis of Optineurin (OPTN) levels in the cerebrospinal fluide (CSF) of mice 2 hours after direct intracerebroventral injection of a vehicle control or apilimod. n=3 mice per group. The ratio of Optineurin in the CSF of apilimod:vehicle-injected mice is shown. (B) Poly(GR)+ DPR punctae in wild-type or C9ORF72 mice treated with intracerebroventricular injection of apilimod for 48 hours. Mean+/−s.e.m. Data points are individual neurons taken across 3 mice per group. One-way ANOVA. […] Unpaired t-test. (D) Pikfyve qRT-PCR of whole brain. n=3 mice per group at postnatal day 7. Unpaired t-test. (E) Gait impairment scoring in wild-type (WT) and TDP-43 homozygous mice treated with a negative control (NC) ASO or Pikfyve ASO at postnatal day 1. Mean+/−s.e.m. Unpaired t-test at each time point between the negative control and Pikfyve ASO conditions for TDP-43 mice. A score of 0 indicates no phenotype and 4 indicates the most severe phenotype. (F) Vehicle or GW4869 were delivered by intraperitoneal injection every 48 h starting from day 6 in negative control and Pikfyve ASO-treated mice. Mean+/−s.e.m. One-way ANOVA at each time point between the four conditions. *p<0.05, **p<0.01, ***p<0.001, ****p<0.0001.
(A) Gait impairment, (B) Kyphosis, and (C) Tremor scoring in wild-type (WT) and TDP-43 homozygous mice treated with a negative control (NC) ASO or Pikfyve ASO at P0. […]

TDP-43 mutant mice = assay: TDP-43 pathology, neurodegeneration and survival in TDP-43 mice; assay type: in vivo
Excerpt: (A, B) Images (A) and quantification (B) of phosphorylated TDP-43 (pTDP43)+ punctae in spinal motor neurons of day 21 wild-type or TDP-43 mutant mice treated with a negative control (NC ASO) or Pikfyve ASO. Each data point represents one mouse, mean+/−s.e.m., one-way ANOVA. In (A), each arrow marks a pTDP-43+ puncta. […] (C, D) Images (C) and quantification (D) of nuclear and cytoplasmic TDP-43 intensity in spinal motor neurons of day 21 wild-type or TDP-43 mutant mice treated with a negative control (NC ASO) or Pikfyve ASO. Each data point represents one mouse, mean+/−s.e.m., one-way ANOVA. […] (E, F) Images (E) and quantification (F) of the average number of Neurotrace (Nissl)+ spinal motor neurons per ventral horn per mouse. Each data point represents one mouse, mean, one-way ANOVA. In (E), orange dotted lines outline the ventral horn area quantified and white dotted lines outline the spinal cord. (G) Survival of TDP-43 mutant mice treated with a negative control (NC ASO) or Pikfyve ASO. Log-rank test. *p<0.05, **p<0.01, ***p<0.001, ****p<0.0001.

[2] = tested on: C9ORF72 dipeptide repeat proteins; assay: DPR levels in C9ORF72-BAC mice; assay type: in vivo; settings: ASO injected into hippocampus, 7 days (12 days in FIG. 8-10)
Method: DRP aggregates (Poly(GR) red) accumulate in the cells (white outline) of C9-BAC mice.
as §1
PIKFYVE inhibition rescues neurodegeneration in vivo. […] Since TARDBP overexpressing mice show motor deficits and neurodegeneration, we used TARDBP mice to test the efficacy of Pikfyve suppression.
(§2) Determining whether PIKfyve-targeting ASOs can reverse ALS disease progression in vivo. To determine if PIKfyve-targeting ASOs can reverse ALS disease processes in vivo, can PIKfyve ASOs lower levels of C9ORF72 dipeptide repeat proteins in mice. Dipeptide repeat proteins are generated from the C9ORF72 repeat expansion by repeat-associated non-AUG-dependent translation and are neurotoxic.
(§3) To determine if ASO-mediated Pikfyve suppression lowers C9ORF72 poly(GR) levels in mice, Pikfyve ASOs were injected into the hippocampus of adult C9ORF72-BAC mice, which harbor a C9ORF72 repeat expanded transgene and accumulate poly(GR)+ aggregates in hippocampal neurons.

Pikfyve [3] = assay: Pikfyve expression in hippocampus after ASO injection; assay type: in vivo, mice; settings: direct ASO injection into hippocampus, 7 days
Excerpt: as §2, §3

C9ORF72 FTD iNs = assay: Survival of C9ORF72 FTD iNs; assay type: cell-based, human; settings: Apilimod+GW4869 (exocytosis blocker)
Excerpt: (A) Survival of C9ORF72 iNs with DMSO or apilimod. Log-rank test, 100 iNs per group. […] Log-rank test, 100 iNs per group. […] Mean+/−s.e.m. Kruskal-Wallis Test.
(A, B) Survival of C9-FTD iNs treated with DMSO and Apilimod (A) or Apilimod+GW4869 (exocytosis blocker) (B). Log-rank test. 100 iNs per group. iNs quantified from 3 independent replicates per group.
Mutations in MAPT cause FTD with tau aggregates. To determine if iNs from FTD patients display neurodegenerative phenotypes, an established method to generate cortical neurons from iPSCs by forced expression of NGN2 was used. 3 FTD patient iPSC lines harboring a MAPTV337M mutation and their CRISPR-edited isogenic controls from a published cell bank were utilized. Neurons from MAPT-mutant iPSCs display increased phosphorylated and oligomeric tau, similar to post-mortem patient tissue (FIG. 18A). […] Thus, MAPT iNs display key features of FTD with tau pathology.
Thus, C9ORF72 iNs provide a robust model of FTD.
(§4) PIKFYVE inhibition rescues neurodegeneration through secretory autophagy.

[4] = target: T1, Neutral Sphingomyelinase 2 (Mus musculus, UniProt Q9JJY3); settings: mice overexpressing TDP-43; cited from earlier work
T1 construct: In mice overexpressing TDP-43, neurons secrete exosomes containing phospho-TDP-43; host or cells: neurons of TDP-43-overexpressing mice (endogenous enzyme, in vivo)
T1 sequence (Q9JJY3 1-655): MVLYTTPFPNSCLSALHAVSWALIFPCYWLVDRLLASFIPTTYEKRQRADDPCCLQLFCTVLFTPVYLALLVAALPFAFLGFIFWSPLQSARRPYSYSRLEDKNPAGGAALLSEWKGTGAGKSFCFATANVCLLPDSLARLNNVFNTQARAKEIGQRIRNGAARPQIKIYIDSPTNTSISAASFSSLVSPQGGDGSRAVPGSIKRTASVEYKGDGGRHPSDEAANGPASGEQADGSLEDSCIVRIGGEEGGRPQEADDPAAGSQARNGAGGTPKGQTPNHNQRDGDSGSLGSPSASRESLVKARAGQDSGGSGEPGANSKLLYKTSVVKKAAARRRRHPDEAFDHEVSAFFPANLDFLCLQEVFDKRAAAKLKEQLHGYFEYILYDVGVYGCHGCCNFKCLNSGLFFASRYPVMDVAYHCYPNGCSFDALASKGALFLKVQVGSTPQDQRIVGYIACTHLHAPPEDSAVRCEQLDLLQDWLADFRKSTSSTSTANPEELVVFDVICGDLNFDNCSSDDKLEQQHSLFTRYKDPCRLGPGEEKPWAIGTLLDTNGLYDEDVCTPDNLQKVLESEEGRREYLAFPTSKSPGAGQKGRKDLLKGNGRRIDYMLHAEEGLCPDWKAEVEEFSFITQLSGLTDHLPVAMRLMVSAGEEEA

C9-ALS/FTD iMNs = assay: Exosome secretion from iMNs; assay type: cell-based, human; settings: apilimod+GW4869
Excerpt: (A) Western blot of TSG101, TDP-43, and Neurofilament heavy chain levels in the exosome fraction secreted from control or C9-ALS/FTD iMNs upon apilimod treatment. […] Kruskal-Wallis test for B, C. N=3 biological replicates per condition, one line per genotype. (D) Number of poly(GR)-GFP+ exosomes secreted from iMNs expressing exogenous poly(GR)-GFP upon DMSO or apilimod treatment. N=4 biological replicates. Exosomes were labeled with CFSE-red dye to enable detection by FACS. Unpaired t-test.
Blocking PIKFYVE activity induces secretory autophagy. […] Thus, secretory autophagy maintains proteostasis and prevents neuronal death in TDP-43 mouse models. PIKFYVE inhibition blocks autophagosome-lysosome fusion by […] their ratio in endosomal, lysosomal and autophagosomal membranes. One might expect this to be detrimental to ALS iMNs, which can degenerate due to misfolded protein accumulation. However, inhibition of autophagosome-lysosome fusion using PIKFYVE inhibition or bafilomycin can activate secretory autophagy to jettison misfolded proteins from cells. […] To test this hypothesis, exosomal release in human iMNs upon PIKFYVE inhibition was examined. […] Thus, PIKFYVE inhibition induces the secretion of TDP-43 and C9ORF72 DPRs from iMNs.
Determining if PIKFYVE suppression rescues neurodegeneration through secretory autophagy. […] ASOs were designed targeting […]. It was confirmed that the ASOs suppressed RAB27A expression in iMNs.

C9-FTD iNs = assay: Exosome secretion from iNs; assay type: cell-based, human; settings: apilimod+GW4869
Excerpt: (A) […] of exosomes from apilimod-treated C9-FTD iNs. (B) Western blot of TSG101, TDP-43, and Neurofilament heavy chain levels in the exosome fraction secreted from control or C9-FTD iNs upon apilimod treatment. (C,D) Quantification of the exosome marker TSG101 (C) or TDP-43 (D) in the exosome fraction of control and C9-FTD iNs treated with DMSO, apilimod, or apilimod+GW4869. Kruskal-Wallis test for B, C. N=3 biological replicates per condition, one line per genotype. (E) Number of poly(GR)-GFP+ exosomes secreted from iNs expressing exogenous poly(GR)-GFP upon DMSO or apilimod treatment. N=4 biological replicates. Exosomes were labeled with CFSE-red dye to enable detection by FACS. Unpaired t-test.
To test this, exosome release from iNs upon PIKFYVE inhibition was examined. […] Thus, PIKFYVE inhibition induces the secretion of TDP-43 and C9ORF72 DPRs from iNs
as §4

sporadic ALS iMNs = assay: Survival of sporadic ALS iMNs
Excerpt: (A) Survival of control (CTRL) and C9ORF72 ALS/FTD patient (C9-ALS) iMNs with a 12-hour pulse treatment of excess glutamate shown for each individual line separately. iMNs quantified from 3 independent iMN conversions per line. (B-D) Immunofluorescence analysis of total TDP-43 (B) and quantification of the ratio of nuclear to cytoplasmic TDP-43 in control, C9-ALS (C), or sporadic ALS (D) iMNs. MNs from 2 controls and 2 C9-ALS patients (C) or 4 sporadic ALS patients (D) were quantified. n=30 (controls), 30 (C9-ALS/FTD), or 36 (sporadic) iMNs per line per condition from 2 biologically independent iMN conversions of 2 control, 2 C9-ALS/FTD, or 4 sporadic ALS lines were quantified. Each gray circle represents a single iMN. Median±interquartile range. Unpaired Mann-Whitney test. Scale bars: 5 μm. Dotted lines outline the nucleus and cell body. (E) Survival of control and sporadic iMNs with glutamate treatment. iMNs quantified from 3 independent iMN conversions per line. For iMN survival experiments, significance was measured by 2-sided log-rank test using the entire survival time course.
(B) Survival of C9-ALS/FTD iMNs with DMSO or apilimod. (C) Survival of sporadic ALS induced motor neurons (iMNs) with DMSO or apilimod. (D) Survival of C9-ALS/FTD iMNs with a scrambled ASO or PIKFYVE ASOs, 100 iMNs per group. […] Unpaired t-test. iMN survival experiments analyzed by log-rank test. […]

Compound: GGTGCATGCTCGGAGGTCTC (chemistry not given here) [Pikfyve ASO, mouse Pikfyve ASO gapmer for in vivo experiments, 5-10-5 2′-MOE, phosphorothioate]
- motor deficits in TARDBP mice (TARDBP mice; intracerebroventricular injection of Pikfyve ASO): rescued motor deficits
- Pikfyve mRNA levels (whole brain qRT-PCR) (Pikfyve [1]): reduced Pikfyve mRNA levels
- Pikfyve mRNA levels (whole brain qRT-PCR) (Pikfyve [1]; listed as Pikfyve-targeting ASO): significantly decreased Pikfyve expression
- survival of TDP-43 mutant mice (TDP-43 mutant mice; NC ASO vs Pikfyve ASO): rescues
- neurodegeneration in TDP-43 mice (TDP-43 mutant mice; Nissl+ spinal motor neurons per ventral horn): rescues
- TDP-43 pathology in TDP-43 mice (TDP-43 mutant mice; spinal motor neurons, day 21, NC ASO vs Pikfyve ASO): rescues
- DPR / poly(GR)+ aggregates in hippocampus of C9ORF72-BAC mice [2]: significantly reduced; also recorded: significantly less DRP aggregates
- DPR / poly(GR)+ aggregates in hippocampus of C9ORF72-BAC mice ([2]; listed as PIKfyve ASO): significantly lowered
- DPR / poly(GR)+ aggregates in hippocampus of C9ORF72-BAC mice ([2]; listed as Pikfyve-suppressing ASO): also lowered DPRs
- Pikfyve expression in hippocampus (Pikfyve [3]): significantly reduced
- Pikfyve expression in hippocampus (Pikfyve [3]; listed as PIKfyve ASO): significantly lowered

Compound: O=C(/C=C/c1ccc(/C=C/C(=O)Nc2ccc(C3=NCCN3)cc2)cc1)Nc1ccc(C2=NCCN2)cc1 [GW4869]
- motor rescue by PIKFYVE ASOs in presence of GW4869 (TARDBP mice; GW4869 intraperitoneal every 48 h from day 6): blocked motor rescue by PIKFYVE ASOs
- apilimod rescue of C9ORF72 iN survival in presence of GW4869 (C9ORF72 FTD iNs): blocked apilimod's ability to rescue
- TDP-43 mouse survival [4]: decreased TDP-43 mouse survival
- neurodegeneration [4]: accelerated neurodegeneration
- neuronal cytoplasmic TDP-43 aggregates [4]: increased neuronal accumulation of cytoplasmic TDP-43 aggregates
- apilimod-induced release of exosomes containing TSG101 and TDP-43 from ALS iMNs with GW4869 (C9-ALS/FTD iMNs): blocked apilimod-induced release of exosomes
- apilimod-induced release of exosomes from C9ORF72 iNs with GW4869 (C9-FTD iNs): impaired apilimod-induced release of exosomes

Compound: Nc1ccc(C(=O)Nc2cccc(-c3nc(N4CCOCC4)c4oc5ncccc5c4n3)c2)cn1 [YM201636]
- sporadic ALS iMN survival (sporadic ALS iMNs): rescued C9ORF72 and sporadic ALS
